{"source": "patent US9868935B2", "about": "“Composition and method of stem cells for preservation of cardiac tissue” (CRIOESTAMINAL, SAÚDE E TECNOLOGIA, SA., priority 2012, dated 2018)", "key": {"[1]": {"biological_target": "T1, peroxisome proliferator-activator receptor γ (PPAR γ) (Homo sapiens, UniProt P37231)", "T1 sequence (P37231 1-505)": "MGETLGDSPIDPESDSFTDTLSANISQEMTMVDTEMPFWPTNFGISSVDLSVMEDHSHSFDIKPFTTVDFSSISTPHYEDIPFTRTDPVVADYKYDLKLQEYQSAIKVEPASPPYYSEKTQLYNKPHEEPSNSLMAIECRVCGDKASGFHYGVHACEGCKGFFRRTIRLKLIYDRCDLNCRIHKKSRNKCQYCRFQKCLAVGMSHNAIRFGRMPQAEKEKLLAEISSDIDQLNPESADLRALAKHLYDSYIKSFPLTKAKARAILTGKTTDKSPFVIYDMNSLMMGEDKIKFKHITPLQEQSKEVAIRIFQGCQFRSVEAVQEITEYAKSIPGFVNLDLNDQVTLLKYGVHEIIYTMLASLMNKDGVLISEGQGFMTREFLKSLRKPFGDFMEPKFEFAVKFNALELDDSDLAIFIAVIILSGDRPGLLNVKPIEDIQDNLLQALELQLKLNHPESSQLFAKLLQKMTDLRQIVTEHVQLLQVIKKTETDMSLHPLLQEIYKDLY", "conditions": "literature studies; cited from earlier work"}, "[2]": {"tested_on": "human umbilical cord blood derived CD34+ cells", "assay": "CD34+ cell survival in hypoxia and serum deprived conditions (Annexin V/PI flow cytometry)", "format": "cell-based", "conditions": "for percentage of viable cells: LPA-treated (100 μM)", "protocol": "In an embodiment, UCB CD34+ cells (1×10^^6 cells/mL) were incubated in X-Vivo media (Lonza) in a hypoxia chamber for 24 h (0.5% of O2 and 5% of CO2), in the presence or absence of pharmacological drugs, for further assessment of cell survival/apoptosis and necrosis by FACS analysis of the expression of annexin V and PI respectively. Preferably, cells were pretreated with the respective drugs for 1 hour before hypoxia, and treatment maintained during hypoxia.\nIn a preferred embodiment, to identify molecules that promote CD34+ cell survival in hypoxia and serum deprived conditions we developed an assay that uses human umbilical cord blood derived CD34+ cells (2×10^^5 cells per well of a 96-well plate) suspended in X-Vivo medium (used in clinical trials (Schachinger, V., et al., Intracoronary bone marrow-derived progenitor cells in acute myocardial infarction. N Engl J Med, 2006. 355(12): p. 1210-21)) and incubated in a hypoxia chamber at 0.5% O2, at 37° C., for 24 h. Some of the drugs selected have been approved by FDA for the treatment of cardiovascular diseases (e.g. Nebivolol Lombardo, R. M., et al., Effects of nebivolol versus carvedilol on left ventricular function in patients with chronic heart failure and reduced left ventricular systolic function. Am J Cardiovasc Drugs, 2006. 6(4): p. 259-63; Ibersatan Massie, B. M., et al., Irbesartan in patients with heart failure and preserved ejection fraction. N Engl J Med, 2008. 359(23): p. 2456-67), others are being evaluated in pre-clinical/clinical assays to improve heart function in patients/models with heart failure (e.g. INO1001 (Szabo, G., et al., INO-1001 a novel poly(ADP-ribose) polymerase (PARP) inhibitor improves cardiac and pulmonary function after crystalloid cardioplegia and extracorporal circulation. Shock, 2004. 21(5): p. 426-32); erythropoietin (Belonje, A. M., et al., Effects of erythropoietin after an acute myocardial infarction: rationale and study design of a prospective, randomized, clinical trial (HEBE III). Am Heart J, 2008. 155(5): p. 817-22); melatonin (Chen, Z., et al., Protective effect of melatonin on myocardial infarction. Am J Physiol Heart Circ Physiol, 2003. 284(5): p. H1618-24); VX-702 (Ma, X. L., et al., Inhibition of p38 mitogen-activated protein kinase decreases cardiomyocyte apoptosis and improves cardiac function after myocardial ischemia and reperfusion. Circulation, 1999. 99(13): p. 1685-91)), others are natural substances found in the human body (LPA). Cell viability was evaluated by flow cytometry using Annexin V/propidium iodide (PI) staining. Annexin V is a phospholipid-binding protein with specificity for phospatidyl serine, one of the earliest makers of cellular transition to an apoptotic state. This phospholipid is translocated from the inner to the outer leaflet of the plasma membrane (Koopman, G., et al., Annexin V for flow cytometric detection of phosphatidylserine expression on B cells undergoing apoptosis. Blood, 1994. 84(5): p. 1415-20.). PI enters in necrotic cells and binds to double-stranded nucleic acids, but is excluded from cells with normal integrity. According to FIG. 1, untreated CD34+ cells show a very poor survival, with only ˜31% of viable cells, ˜31% of apoptotic cells (Annexin V+/PI−) being the majority of the cells ˜39% at the necrotic stage (PI+). […] LPA (10 μM) was the drug with the highest pro-survival effect (˜69% of viable cells) and therefore further studied (FIGS. 1 and 2A).\nImportantly, the percentage of viable cells in CD34+ treated with 1 μM of LPA and cultured under hypoxia conditions is similar to untreated cells cultured under normoxia conditions. The pro-survival effect of LPA decreases as a function of hypoxia time (FIG. 2C). The percentage of viable cells in LPA-treated CD34+ cells decreased from 78% at day 1 to 40% at day 3."}}}
{"substance": "lysophosphatidic acid [LPA]", "values": [{"measurement": "affinity for PPARγ", "setting": "[1]", "result": "high affinity"}, {"measurement": "survival of CD34+ cells vs control (untreated cells)", "setting": "[2]; 1 μM LPA, hypoxia 24 h, P<0.001, n=6", "result": "statistically significant"}, {"measurement": "viable cells", "setting": "[2]; LPA 10 μM, hypoxia 0.5% O2, 24 h, serum free X-Vivo medium", "result": "~69", "unit": "%"}, {"measurement": "percentage of viable cells", "setting": "[2]; hypoxia day 1", "result": 78, "unit": "%"}, {"measurement": "percentage of viable cells", "setting": "[2]; hypoxia day 3", "result": 40, "unit": "%"}, {"measurement": "cell survival vs untreated cells", "setting": "[2]; hypoxia 0.5% O2, 24 h, serum free, P<0.001", "result": "improved significantly"}, {"measurement": "survival relatively to untreated cells", "setting": "[2]; hypoxia and serum deprived conditions", "result": "double their survival"}]}
